What all share (format): cell-based
One assay concerns B10F16 mouse melanocytes. Briefly: skin de-pigmentation assay (cell pellet colour intensity). Here is the method:
The assay was standardized using B10F16 mouse melanocytes with cell numbers at a density ranging from 5×10^4 to 1×10^5 cells per ml. […] The following day the cells were pre-treated with 80 μM of PA and 10 μM+control for 2 h, 24 h, 72 h and 96 h.
Cells were then collected, counted for cell number and equal numbers were pelleted. The cell pellet was visually observed for colour intensity and quantified. The same cell pellet was then used for protein extraction and immunoblot analysis.
Test solution preparation: Stock solutions of the test compound are prepared by dissolving in DMSO. The stock solutions were filter sterilized, stored in fridge at 4° C., and were used for experiments by dilution it in the cell culture medium as required.
Mouse melanocytes (B10F16 cell line) were maintained in Dulbecco's modified Eagle's medium (DMEM; Invitrogen) supplemented with 10% foetal bovine serum (v/v; Invitrogen), 2 mM glutamine, and 1% non-essential amino-acids.
Cells were sub-cultured at 37° C., 5% CO2 and 95% humidity, were fed approximately 16 h prior to each assay and cell number was determined in duplicates using a Coulter Z2 counter (Beckman Coulter). Mouse melanocytes were sub-cultured when they reached confluence at a split ratio 1:4.

Assay [1] concerns human fibroblast cells. Briefly: uni-directional scratch assay (cell migration). The settings on record: fibroblasts pre-treated with PA 80 μM for three days; after 24 hrs. How it is done: Fibroblasts were pre-treated with PA (80 μM) for three days before performing the scratch assay.
(§1) Delicate cell monolayers at confluency are mechanically disrupted leaving an area devoid of cells. This procedure is accomplished by a “scrape” made on the cells and later advancement of the adjacent cells into the open area by cell mechanical migration, which is monitored by microscopy. Depending on the cell type, the covering process can take from many hours to less than a day, which is entirely dependent on the type of cells and extent of the scrape. The rate or the extent of migration of the cells (often termed as repopulation rate) can be calculated by a series of photomicrographs.
• Plate fibroblasts at a density 1×10^4 in 35 mm tissue culture plates and incubate for three days using novel test compounds with a control at 37° C., 5% CO2. • At confluency, displace a group of cells within the […] measure the scrape size at each time point. • Evaluate statistical significance by Student's t test. • Observe significant differences in scrape repairin PA pre-treatment on fibroblasts.

In assay [2] the test system is human fibroblast cells. Briefly: bi-directional scratch assay (cell migration). The following applies: fibroblasts pre-treated with PA 80 μM for three days; bidirectional scratch. How it is done:
Fibroblasts were pre-treated with PA (80 μM) for three days before performing the scratch assay. Migration was quantified by a micrometer scale (see FIG. 3).
as §1
• Plate fibroblasts at a density 1×10^4 in 35 mm tissue culture plates and incubate for three days using novel test compounds with a control at 37° C., 5% CO2. • At confluency, displace a group of cells within the monolayer by making one streak using a sterile pipette tip. • Photograph under phase contrast microscopy sequentially at an interval of 19 hrs post scraping. • Using an ocular micrometer measure the scrape size at each time point. • Evaluate statistical significance by Student's t test. • Observe significant differences in scrape repairin PA pre-treatment on fibroblasts.

Assay [3] has as its system fibroblasts embedded in collagen lattice. Briefly: free floating collagen lattice contraction assay. The settings on record: PA pre-treated embedded fibroblasts; two independent experiments. How it is done: Collagen type I from bovine skin can be purchased from IBFB Pharma GmbH, Leipzig, Germany and is prepared according to the distributed protocols.
Cells are trypsinized, suspended in complete growth medium and carefully mixed in the collagen solution (collagen in 0.9×DMEM, 10% FCS, 0.2 mM NaOH, prepared at room temperature). Final cell concentrations might range from 0.8×10^4 to 3×10^5 cells/ml lattice. Final concentration of collagen might range from 0.3-0.6 mg/ml lattice.
After mixing, the solution is placed onto bacteriological Petri dishes and immediately put back into the incubator.
Half an hour after polymerization in the incubator, the lattices are carefully detached from the borders of the dishes using a pipette tip. It is important that the Free Floating Collagen Lattices “swim” freely in the medium.
Measurement of the diameter is performed at different time points depending on cell type and seeded cell number. Measurement can be done using a scale paper. From the diameter the area of the collagen lattice can be calculated and their size can be compared at different time points.
Production of collagen lattices: • Estimated time for 20 lattices=1 h conduction plus 1 h until medium addition. • Per assay, 20 empty 35 mm cell culture dishes were pre-warmed to 37° C. […]

A further assay has as its system fibroblast cells. The assay is described as follows: Boyden chamber chemotactic migration assay. The settings on record: PA treated vs controls; three independent assays. Here is the method:
48-well Microchemotaxis Chamber Protocol
NOTE: The following directions assume that you are working with polycarbonate filters.
• 1. Adjust a variable-volume micropipette with a 1 mm tip so that the ejected liquid fills a bottom well. The well will hold 25 to 26 μL. A slight positive meniscus should form when the well is filled; this prevents air bubbles from being trapped when the filter is applied. • 2. Orient the bottom plate on a flat surface so that the NP trademark is at the upper left. Warm chemo-attractants or control reagents to about 37° C. and de-gas them by vortex or vacuum. Fill the bottom wells, completing the 48 wells in no more than 5 minutes, to prevent excessive evaporation. • 3. Cut 1 mm off the corner of a filter membrane and orient it with the cut corner at the upper left. Lift the filter by the ends with two forceps, hold it evenly over the filled wells, and lower it onto them, allowing the middle portion of the filter to make contact first. The filter position can be adjusted at this point if necessary, but note that too much movement will cause contamination between wells. • 4. Apply the silicone gasket with its cut corner at the upper left, then the top plate, aligning its NP trademark with the trademark on the bottom plate. […] With your free hand, apply and tighten the thumb nuts until finger tight.
• 1. […]

On to `Oc1ccc(O)cc1` [+C, Hydroquinone, reference compound], for which the “cell pellet colour, % lighter relative to −control” value in the assay with B10F16 mouse melanocytes (Hydroquinone at 10 μM, after 96 hrs) is recorded as 78% lighter (78% relative to −control).

On to `NC(=O)CCc1ccc(O)cc1` [PA, 3-(4-hydroxyphenyl)propanoic acid amide], for which the “enhancement of migration (tissue repair) in vitro, uni-directional cell migration” value in the assay on human fibroblast cells [1] is given as “more than 60%”. Further, in the assay with human fibroblast cells [2], the “improvement of tissue migration over the untreated” value was “about 37%”. The “improvement of collagen contraction” value in assay [3] was 85%. Further, the “enhancement of chemotactic migration towards chemo-attractants (factor)” value in the assay with fibroblast cells is recorded as 2.7. Moreover, in the assay with B10F16 mouse melanocytes (PA 80 μM, visual observation), the “colour change of cell pellet (inhibition of melanin production)” value is on record as “distinct color change from dark to pale”. Besides, in the assay on B10F16 mouse melanocytes (compound at 80 μM, after 96 hrs), the “cell pellet colour, % lighter relative to −control” value is recorded as 50% lighter (relative to − control). Moreover, the “cell pellet colour, % lighter relative to +control” value with B10F16 mouse melanocytes (compound at 80 μM, after 96 hrs, relative to hydroquinone 10 μM) is reported as 39% lighter (relative to +control).

The values above are taken from patent US20180228711A1, “3-(4-HYDROXYPHENYL) PROPANOIC ACID AMIDE FOR USE IN TISSUE REPAIR AND/OR SKIN BRIGHTENING” (NMETICS IVS, priority 2015, published 2018).
